From patent publication US9290528B1, “Light-activated compounds” (University of Kentucky Research Foundation, priority 2013, dated 2016)
Where “and” joins values, the source holds several entries; their conditions need not be identical. Identical values can stand only once. Like-named read-outs stand apart in the source and are kept apart here.

Assays:
[1] = test system: HL60 promyelocytic leukemia cell line; assay: Cell survival assay, HL60; assay type: cell-based; conditions: for Phototoxicity Index, PI HL60: ratio of dark and light IC50
Experimental: (§1) The HL60 promyelocytic leukemia cell line was obtained from ATCC and cultured in IMDM media (Invitrogen; Carlsbad, Calif.) supplemented with 10% serum supreme (Lonza; Basel, Switzerland) and penicillin/streptomycin at 37° C. with 5% CO2. The A549 cell line was donated and cultured in DMEM supplemented with glutamax, 10% serum supreme, and penicillin/streptomycin at 37° C. with 5% CO2. Cells were plated in Optimem (Life Technologies; Carlsbad, Calif.) supplemented with 1% serum supreme and penicillin/streptomycin at 30,000 cells per well in Costar 96 well flat bottom clear tissue culture treated plates for HL60 and 1500 cells/well for A549. […] The cells were then incubated for 72 hours followed by the addition of Cell Titer Glo (Promega; Madison, Wis.) to determine viability. Dark controls were run in parallel. The resulting luminescence was measured using the SpectraFluor Plus Plate Reader (Tecan). Data were fit to an equation for a sigmoidal dose response using the equation below, where yi and yf are the initial and final signal intensities.
(§2) Cell cytotoxicity studies were performed in HL60 leukemia cells and A549 lung cancer cells (see FIG. 7 and Table 3). Cells were incubated with compounds for 12 hours in the dark before irradiated with >450 nm light (410 W) for 3 minutes. Dark controls were run in parallel. Cell survival was quantified 72 hours later through the use of an ATP luciferase assay, and confirmed by Trypan Blue staining and manual counting.

A549 tumor spheroids = assay: A549 tumor spheroid cytotoxicity; assay type: cell-based; conditions: for MCR Index: ratio of spheroid and monolayer culture IC50
Experimental: A549 cells were seeded at 2,500 cells/well in 1.5% agarose coated 96-well plates. After 7 days the spheroids were dosed with compounds and incubated for 12 hrs. […] Cellular viability was determined 72 hours after light activation for the irradiated samples and at the same time point for the dark samples by measuring ATP concentration with CellTiter Glo (Promega). Data were fit to an equation for sigmoidal dose response shown above using the Prism software package.
3D tumor spheroids were used to test the compounds. Spheroids provide a system that approximates the complexity of in vivo tumors. These spheroids mimic the pathophysiology of tumors, including hypoxic/necrotic regions, changes in cell shape, high proportions of quiescent cells, alterations in gene expression profiles, and diminished permeability to drugs. […] To characterize the light-activated ruthenium compounds under more challenging and biologically relevant conditions, efficacy was assessed in a 3D tumor model by forming tumor spheroids with A549 cells.
Spheroids of about 600 μm in diameter were dosed with compounds and then either kept in the dark or irradiated with >450 nm light for 3 minutes.

A549 lung cancer cells = assay: Cell survival assay, A549 monolayer; assay type: cell-based; conditions: for Phototoxicity Index, PI A549: ratio of dark and light IC50
Experimental: as §1, §2

pUC19 plasmid [2] = assay: Glutathione assay: pUC19 crosslinking with increasing GSH; assay type: biochemical; conditions: 30 μM compound, 0.01-40 mM GSH; 4 light-activated
Experimental: The concentrations of GSH were 0.01, 0.1, 1, 10, 40 mM, giving a molar ratio between the compounds and glutathione of a) 1:0.3, b) 1:3.3, c) 1:33, d) 1:333, e) 1:1333. […] Control reactions with pUC19 in the presence and absence of GSH were carried out for 12 hrs in the dark with 25 μg/ml plasmid and 40 mM GSH in 10 mM phosphate buffer, pH 7.5. The plasmid was resolved on a 1% agarose gel as described above.
(§3) The photoactivated DNA crosslinking Ru(bpy)2 species retained its ability to damage DNA, even at higher GSH concentrations.

[3] = test system: HL60 leukemia cells and A549 lung cancer cells; assay: Cell cytotoxicity studies, summary over HL60 and A549; assay type: cell-based; conditions: for activity light versus dark: >450 nm light 3 minutes vs dark
Experimental: as §1, §2

HL60 cells [4] = assay: Genomic DNA laddering by gel electrophoresis; assay type: cell-based, human; conditions: dark / not irradiated
Excerpt: To further analyze the mechanisms of cell death induced by 9 and 10, the degradation pattern of genomic DNA was investigated. DNA laddering was observed as a result of DNA fragmentation stemming from the execution phase of apoptosis. In contrast, necrotic cell death lacked this characteristic laddering effect, allowing differentiation between these two mechanisms. […] This laddering was absent in the cells treated with ethanol and compounds 9 and 10 in the dark. […] In contrast, given the cytotoxicity of 9 in the dark and the presence of the 55 kDa PARP fragment, it appears that necrotic cell death is one pathway for […]. For compound 10 the absence of DNA laddering may be a result of the lack of cytotoxicity of the negatively charged compound.

[5] = test system: HL-60 human leukemia cell line; assay: Cytotoxicity in HL-60 cells, dark and irradiated (Example 1); assay type: cell-based
Experimental: Cytotoxicity studies were performed to determine if the light-induced DNA damage translated to biological activity in cancer cells. […] The compounds were incubated with the cells for 12 hours prior to irradiation with blue (>400 nm), red (>600 nm), and near-IR (>650 nm) light (Table 2). […] Increasing the light dose increased the observed potency. […] A phototoxicity index (PI) value (the toxicity in the dark vs. the light) of 43 was found with blue light for compound 1.

[6] = Light and dark cytotoxicity of exemplary compounds (Table 6); assay type: cell-based; conditions: for IC50: cell line not stated; for Phototoxicity Index: dark IC50/light IC50
Excerpt: This Example describes additional specific embodiments the presently-disclosed subject matter. […] The methods for making and characterizing the compounds are based on the methodologies described in the previous examples.

HL60 cells [7] = assay: Western blot of PARP and caspase 3 cleavage; assay type: cell-based, human; conditions: protected from light and irradiated
Experimental: Given the different cellular localization properties and time profiles for cell death induced by 9 and 10, the mechanism of cell death was investigated. Indicators of apoptotic cell death (activation of PARP and caspase 3 through proteolysis) were determined in HL60 cells treated with either 9 or 10 (FIGS. 15A and 15B).
The generation of an alternate 55 kDa PARP fragment was determined by immunoblot as a marker for necrosis with 10% (v/v) ethanol used as a control that induces necrosis.

pUC19 plasmid [8] = assay: Plasmid-compound gel analysis (Example 2); conditions: visible light 200 W, 1 hour
[9] = Interaction of prodrug compounds with GSH by UV/Vis spectroscopy; assay type: physicochemical; conditions: period of days
Excerpt: as §3

CT DNA = assay: DNA binding affinity (Kb) with CT DNA; parameters: species or system calf; conditions: racemic mixtures
Excerpt: Intercalation of both complexes was consistent with the reduced mobility of supercoiled plasmid DNA in agarose gels, and the modulation of the absorption spectra in the presence of DNA, characterized by hypochromism of both the π-π* of the dppz ligand and the MLCT transitions, with maximal effect at a ratio of 2:1 DNA base pairs to metal center. Thus, the strained complex retained DNA-sensing capabilities of other Ru^II “light-switch” molecules and photochemical reactivity.

[10] = 3 min >450 nm light, 72 hours, read-out: Light IC50 HL60
[11] = dark, read-out: Dark IC50 A549 spheroid
[12] = 3 min >450 nm light, 72 hours, read-out: Light IC50 A549
[13] = 3 min >450 nm light, 72 hours, read-out: Light IC50 A549 spheroid

With `Cl.NCC(=O)CCC(=O)O` [ALA, 5-aminolevulinic acid hydrochloride, reference compound] the IC50 ([1]; Homo sapiens, HL-60, 3 min >450 nm light, 72 hours, read-out: Light IC50 HL60) was 16.2 µM, the IC50 ([1]; Homo sapiens, HL-60, read-out: Dark IC50 HL60) was greater than 300 µM and the “Phototoxicity Index, PI HL60” value [1] was greater than 18. The “Light IC50 A549 spheroid” value (A549 tumor spheroids; 3 min >450 nm light, 72 hours) was “had no effect”, the IC50 (A549 tumor spheroids; Homo sapiens, A549, 3 min >450 nm light, 72 hours, read-out: Light IC50 A549 spheroid) was greater than 300 µM and the IC50 (A549 tumor spheroids; Homo sapiens, A549, read-out: Dark IC50 A549 spheroid) was greater than 300 µM. The “MCR Index” value (A549 tumor spheroids) was greater than 14, the IC50 (A549 lung cancer cells; Homo sapiens, A549, 3 min >450 nm light, 72 hours, read-out: Light IC50 A549) was 21 µM and the IC50 (A549 lung cancer cells; Homo sapiens, A549, read-out: Dark IC50 A549) was 87.8 µM. For the same molecule, the “Phototoxicity Index, PI A549” value (A549 lung cancer cells) was 4.2.
With `N.N.[Cl][Pt][Cl]` [Cisplatin, reference compound] the IC50 [1, 10] was 3.1 µM, the IC50 ([1]; dark, read-out: Dark IC50 HL60) was 3.1 µM and the “plasmid DNA crosslinking in presence of increasing GSH” value (pUC19 plasmid [2]) was “reduced crosslinking efficacy”. The “activity light versus dark” value [3] was “same activity under light and dark conditions”, the IC50 (A549 tumor spheroids; [11]) was 42 µM and the “genomic DNA laddering” value (HL60 cells [4]) was “initiated DNA fragmentation resulting in a laddering pattern”. For the same molecule, the IC50 ([5]; HL-60, dark, read-out: IC50 Dark) was 3.1 µM, the IC50 ([5]; HL-60, light condition not given, read-out: IC50) was 3.1 µM and the IC50 ([5]; read-out: IC50 Blue (3 min), HL-60, 12 hours incubation, blue (>400 nm) light 3 min) was 3.1 µM. For the same molecule, the IC50 ([6]; read-out: Dark IC50) was 3.1 µM, the IC50 ([6]; read-out: Light IC50) was 3.1 µM and the “55 kDa PARP fragment (marker for necrosis)” value (HL60 cells [7]) was “also produced this cleavage product”. It also gave an IC50 (A549 lung cancer cells; [12]) of 3.4 µM and an IC50 (A549 lung cancer cells; dark, read-out: Dark IC50 A549) of 3.5 µM.
With `[Ru+2].c1ccc(-c2ccccn2)nc1.c1ccc(-c2ccccn2)nc1.c1cnc2c(c1)ccc1cccnc12` [Compound 3, Ru(bpy)2phen] the IC50 [1, 10] was 81 µM, the IC50 ([1]; dark, read-out: Dark IC50 HL60) was 240 µM and the “Phototoxicity Index, PI HL60” value [1] was 3. For the same molecule, the “type of DNA damage upon visible light” value (pUC19 plasmid [8]) was “DNA photocleavage”, the IC50 (A549 tumor spheroids; [13]) was greater than 300 µM and the IC50 (A549 tumor spheroids; [11]) was greater than 300 µM. For the same molecule, the “MCR Index” value (A549 tumor spheroids) was greater than 7.5, the IC50 (A549 lung cancer cells; [12]) was 40 µM and the IC50 (A549 lung cancer cells; dark, read-out: Dark IC50 A549) was 250 µM. The “Phototoxicity Index, PI A549” value (A549 lung cancer cells) was 6.3.
With `Cc1ccc2c3nccnc3c3ccc(C)nc3c2n1.F[P-](F)(F)(F)(F)F.F[P-](F)(F)(F)(F)F.[Ru+2].c1ccc(-c2ccccn2)nc1.c1ccc(-c2ccccn2)nc1` [Compound 5, Ru(bpy)2dmdpq] the IC50 [1, 10] was 2.6 µM, the IC50 ([1]; dark, read-out: Dark IC50 HL60) was 108 µM and the “Phototoxicity Index, PI HL60” value [1] was 216. The “activity light versus dark” value [3] was “light-triggered toxicity”, the “IC50 values after irradiation” value ([3]; after irradiation) was “single μM IC50 values” and the IC50 ([3]; dark) was greater than 100 µM. The “type of DNA damage upon visible light” value (pUC19 plasmid [8]) was “combination of these two mechanisms”, the “interaction with GSH” value [9] was “did not interact with GSH” and the IC50 (A549 tumor spheroids; [13]) was 64 µM and 64.6 µM. The IC50 (A549 tumor spheroids; [11]) was greater than 300 µM, the “MCR Index” value (A549 tumor spheroids) was 54 and the IC50 ([6]; read-out: Dark IC50) was 250 µM. The IC50 ([6]; read-out: Light IC50) was 0.6 µM, the “Phototoxicity Index” value [6] was 400 and the IC50 (A549 lung cancer cells; [12]) was 1.2 µM. For the same molecule, the IC50 (A549 lung cancer cells; dark, read-out: Dark IC50 A549) was 250 µM and the “Phototoxicity Index, PI A549” value (A549 lung cancer cells) was 208.
With `Cc1cc(-c2ccccc2)c2ccc3c(-c4ccccc4)cc(C)nc3c2n1.[Ru+2].c1ccc(-c2ccccn2)nc1.c1ccc(-c2ccccn2)nc1` [Ru(bpy)2bathocuprione] the IC50 ([6]; read-out: Dark IC50) was 27 µM, the IC50 ([6]; read-out: Light IC50) was 3.3 µM and the “Phototoxicity Index” value [6] was 8.18.
In the case of `Cc1ccc2ccc3ccc(C)nc3c2n1.[Ru+2].c1ccc(-c2ccccn2)nc1.c1ccc(-c2ccccn2)nc1` [Ru(bpy)2dmphen], the IC50 ([6]; read-out: Dark IC50) is reported as 8 µM, the IC50 ([6]; read-out: Light IC50) is reported as 0.4 µM and the “Phototoxicity Index” value [6] is reported as 20.
In the case of `Cc1ccc2ccc3ccc(C)nc3c2n1.Cc1ccc2ccc3ccc(C)nc3c2n1.[Ru+2].c1ccc(-c2ccnc3c2ccc2c(-c4ccccc4)ccnc23)cc1` [Ru(dmphen)2bathophen], the IC50 ([6]; read-out: Dark IC50) is reported as 4.5 µM, the IC50 ([6]; read-out: Light IC50) is reported as 1.7 µM and the “Phototoxicity Index” value [6] is reported as 2.5.
With `Cc1ccc2ccc3ccc(C)nc3c2n1.Cc1ccc2ccc3ccc(C)nc3c2n1.[Ru+2].c1ccc(-c2ccccn2)nc1` [Ru(dmphen)2bpy] the IC50 ([6]; read-out: Dark IC50) was 150 µM, the IC50 ([6]; read-out: Light IC50) was 1.2 µM and the “Phototoxicity Index” value [6] was 125.
For `Cc1ccc2ccc3ccc(C)nc3c2n1.Cc1ccc2ccc3ccc(C)nc3c2n1.[Ru+2].c1ccc2nc3c4cccnc4c4ncccc4c3nc2c1` [Ru(dmphen)2dppz], the IC50 ([6]; read-out: Dark IC50) was 150 µM, the IC50 ([6]; read-out: Light IC50) was 0.5 µM and the “Phototoxicity Index” value [6] was 300.
With `Cc1ccc2ccc3ccc(C)nc3c2n1.Cc1ccc2ccc3ccc(C)nc3c2n1.[Ru+2].c1cnc2c(c1)c1nccnc1c1cccnc12` [Ru(dmphen)2dpq] the IC50 ([6]; read-out: Dark IC50) was 250 µM, the IC50 ([6]; read-out: Light IC50) was 0.22 µM and the “Phototoxicity Index” value [6] was 1,130.
With `Cc1ccc2ccc3ccc(C)nc3c2n1.Cc1ccc2ccc3ccc(C)nc3c2n1.[Ru+2].c1cnc2c(c1)ccc1cccnc12` [Ru(dmphen)2phen] the IC50 ([6]; read-out: Dark IC50) was 35 µM, the IC50 ([6]; read-out: Light IC50) was 0.14 µM and the “Phototoxicity Index” value [6] was 250.
For `COc1cccc2c1C(=O)c1c(O)c3c(c(O)c1C2=O)C[C@@](O)(C(=O)CO)C[C@@H]3O[C@H]1C[C@H](N)[C@H](O)[C@H](C)O1` [doxorubicin, reference compound], the “55 kDa PARP fragment (marker for necrosis)” value (HL60 cells [7]) was “also produced this cleavage product”.
In the case of “Ru(bpy)2dppz [Compound 7, reference compound]”, the Kb (CT DNA) is reported as 1e+07 M⁻¹.
